Data set [1] concerns H460. Nature of the data set: Cytotoxicity under normoxia and hypoxia (anaerobic chamber), H460. As to conditions: for HCR (Hypoxia Cytotoxicity Ratio = normoxic IC50/hypoxic IC50): H460; for IC50: 4 h exposure. Type of data set: cell-based, Human. As for the experimental part:
(§1) The ability of the designed prodrugs to liberate the active alkaloids in hypoxic tumors was evaluated by testing them under hypoxic conditions using an anaerobic chamber. The three prodrugs 5a-c and their parent alkaloids as well as the reference compounds PR-104A, the parent alcohol form of the phosphate pre-prodrug PR-104, and evofosfamide were tested using the HCT116 and H460 cell lines under both normoxic and hypoxic conditions (Table 5). The prodrugs were much less cytotoxic than the parent drugs, in agreement with the results using the other cell lines described above (see FIG. 6).
(§2) The eight cell lines HEK293 (Human embryonic kidney 293), CHO-Kt (Chinese hamster ovary K1), MCF-7 cells (Human breast adenocarcinoma), HCT116 (human colorectal carcinoma), RKO (Human rectal carcinoma), SW480 (human colorectal carcinoma), H460 (Human lung cancer), and MRCS (Normal human fetal lung fibroblast), were obtained from the ATCC. The cell lines were routinely grown in alpha minimum essential medium (α-MEM) containing 5% fetal calf serum (FCS). The appropriate number of cells (HCT116=400 cells/well, H460 cells=600 cells/well) were seeded into 96-well plates under normoxic or hypoxic conditions. Cells were plated in 100 μL α-MEM containing 10% FCS, 10 mM D-Glucose and 0.2 mM 20-deoxycytidine. After incubation for 2 h, the compounds were added at the appropriate concentration and incubated for further 4 h. The cells were then washed three times with drug-free α-MEM (containing 5% FCS and pen/strep). The plates were then incubated for 5 days under normoxic conditions. The cells were stained with sulphorhodamine B to measure total cells as per the standard procedure described in Skehan, et. al. [Skehan, P., et. al., J. Natl. Cancer Inst., 1990, 82, 1107-1112, incorporated herein by reference in its entirety]. The IC50 was determined by interpolation as the compound concentration reducing staining to 50% of controls on the same plate as per the standard procedure described in Guise, et. al. [Guise, C. P., et. al., Biochem. Pharmacol., 2007, 74, 810-820, incorporated herein by reference in its entirety].

Data set [2] concerns MCF7. Nature of the data set: Cytotoxicity under normoxia (MTT), MCF7. Type of data set: cell-based, Human. The method, then:
(§3) The cytotoxicity of the compounds 5a-c and their parent alkaloids was evaluated by the 3-[4,5-dimethylthiazole-2-yl]-2,5-diphenyltetrazolium bromide (MTT) assay against 5 cancerous and 2 non-cancerous cell lines (Table 4).
as §2

The subject of data set [3] is HEK293. Nature of the data set: Cytotoxicity under normoxia (MTT), HEK293. It is filed as cell-based, Human. As for the experimental part: as §3, §2
The nature of data set [4]: BBB-Parallel Artificial Membrane Permeability Assay (BBB-PAMPA). It is filed as in vitro ADME. As for the experimental part:
The physicochemical properties of the new compounds were evaluated (Table 1). […] Consequently, these derivatives lost their BBB penetrability, as predicted by the BBB-Parallel Artificial Membrane Permeability Assay (BBB-PAMPA), whereas their parent alkaloids had free passage through the BBB.
(§4) Water solubility, log D, and PAMPA-BBB were evaluated using the protocols as described in Omran, et. al. [Omran, Z., et. al., Chem. Pharm. Bull., 2019, 67, 1208-1210, incorporated herein by reference in its entirety].
In general terms: In PAMPA a lipid-coated filter parts donor from acceptor wells.

The nature of data set [5]: Mouse microsomal liver stability assay. As to conditions: mouse hepatic microsomes, 2 μM, 37° C. As for the experimental part: Protoc. […] Microsomal incubations were carried out in 96-well plates in 5 aliquots of 40 μL each. […] Control incubations were performed by replacing the NADPH-cofactor system with PBS. The additional control incubations in PBS (with 3.3 mM MgCl2) without added microsomes were carried out in this study. […] The incubations were performed in duplicates. Five time points over 40 min had been analyzed. The reactions were stopped by adding 12 volumes of 90% acetonitrile-water to incubation aliquots, followed by protein sedimentation by centrifuging at 5500 rpm for 3 min. The supernatants were analyzed using LC-MS as mentioned above.

The nature of data set [6]: PBS (pH 7.4) solubility. It is filed as physicochemical. The method, then:
as §4

Data set [7] concerns MRC5. Nature of the data set: Cytotoxicity under normoxia (MTT), MRC5. Type of data set: cell-based, human. The method, then:
as §3, §2

For data set [8], the system named is RKO. Nature of the data set: Cytotoxicity under normoxia (MTT), RKO. It is filed as cell-based, Human. As to conditions: read-out: IC50 RKO. As for the experimental part:
as §3, §2

For data set [9], the system named is HCT116. Nature of the data set: Cytotoxicity under normoxia (MTT), HCT116. Type of data set: cell-based, human. As for the experimental part:
as §3, §2

For data set [10], the system named is HCT116. Nature of the data set: Cytotoxicity under normoxia and hypoxia (anaerobic chamber), HCT116. It is filed as cell-based, human. As to conditions: for HCR (Hypoxia Cytotoxicity Ratio = normoxic IC50/hypoxic IC50): HTC 116; for IC50: 4 h exposure. The method, then: as §1, §2
Data set [11] relates to CHO-K1. Nature of the data set: Cytotoxicity under normoxia (MTT), CHO-K1. Type of data set: cell-based, Chinese hamster. The method, then: as §3, §2
Data set [12] has as its system SW480. Nature of the data set: Cytotoxicity under normoxia (MTT), SW480. It is filed as cell-based, human. As for the experimental part: as §3, §2
Data set [13] is described as follows: LogD. It is filed as physicochemical. As for the experimental part:
as §4

The mark [14] stands for this setting: H460, hypoxia, read-out: IC50 (Hypoxia).
The mark [15] stands for this setting: H460, normoxia, read-out: IC50 (Normoxia).
[16] abbreviates: normoxia, read-out: IC50 HEK293.
Where [17] appears, read: normoxia, read-out: IC50 HCT116.
Where [18] appears, read: HTC 116, hypoxia, read-out: IC50 (Hypoxia).
The mark [19] stands for this setting: HTC 116, normoxia, read-out: IC50 (Normoxia).
Where [20] appears, read: normoxia, read-out: IC50 CHO-K1.

The text below walks through data of patent US11548891B1, “Quaternary ammonium salts of phenanthroindolizidine and phenanthroquinolizidine alkaloids as hypoxia-targeted anticancer agents” (BATTERJEE MEDICAL COLLEGE, priority 2022, dated 2023).

Molecules are shown by their SMILES. Like-named read-outs stand apart in the source and are kept apart here.

As usually defined, the IC50 is the concentration needed to halve the response being measured. `COc1ccc2c3c(c4cc(OC)c(OC)cc4c2c1)C[C@H]1CCCN1C3` [(R)-Antofine, (R)-antofine]: the “HCR (Hypoxia Cytotoxicity Ratio = normoxic IC50/hypoxic IC50)” value stood at 0.6 in [1] and 0.4 in data set [10]. Besides, the IC50 turned out to be 25.4 nM in [1] (setting [14]); 29.2 nM in [1] (setting [15]); 2 nM in data set [2] (normoxia, read-out: IC50 MCF7); 340 ± 43 nM in data set [3] (setting [16]); 6 ± 2 nM in data set [7] (normoxia, read-out: IC50 MRC5); 2 nM in [8] (normoxia). Moreover, the IC50 in [9] (setting [17]) came out at 2 nM; in data set [10] (setting [18]), 16.7 nM; in data set [10] (setting [19]) it was 23.9 nM; in [11] (setting [20]), 33 ± 50 nM; in [12] (normoxia, read-out: IC50 SW480), 9 ± 2 nM. Further, in [4], the “Permeability (Papp) Log [10^−6 cm/s] Mean ± SE” value was −5.6 ± 0.58 Log [10^−6 cm/s]. Further, the “Kel, min^−1 (elimination rate constant)” value in [5] is 0.002 ± 0 min⁻¹. For the same compound, in [5], the “t1/2, min” value amounted to 1.12 ± 0.035 h. In addition, the “PBS (pH 7.4) Solubility μM Mean ± SE” value in data set [6] came out at 27 ± 2 μM. For the same compound, the “LogD Mean ± SE” value in data set [13] came to 3.68 ± 0.03.

As for `COc1cc2c3c(c4cc(OC)c(OC)cc4c2cc1OC)CN1CCC[C@@H]1C3` [(R)-Tylophorine], the “HCR (Hypoxia Cytotoxicity Ratio = normoxic IC50/hypoxic IC50)” value in [1] was 1.1; in [10] it was 0.6. Moreover, the IC50 worked out at 161 nM in [1] (setting [14]); 175 nM in data set [1] (setting [15]); 101 ± 88 nM in data set [2] (normoxia, read-out: IC50 MCF7); 95 ± 6 nM in [7] (normoxia, read-out: IC50 MRC5); 338 ± 61 nM in [8] (normoxia); 440 ± 36 nM in [9] (setting [17]). Also, the IC50 in data set [10] (setting [18]) stood at 56.4 nM; in data set [10] (setting [19]), 1710 nM; in [12] (normoxia, read-out: IC50 SW480), 1150 ± 244 nM.

Regarding `COc1cc2c3c(c4cc(OC)c(OC)cc4c2cc1OC)CN1CCC[C@H]1C3` [(S)-Tylophorine], the “HCR (Hypoxia Cytotoxicity Ratio = normoxic IC50/hypoxic IC50)” value in [1] was 1.1; in data set [10], 0.5. The IC50 in data set [1] (setting [14]) was determined as 102 nM; in [1] (setting [15]) it was 108 nM; in data set [2] (normoxia, read-out: IC50 MCF7), 62 ± 13 nM; in data set [3] (setting [16]) it was 16 ± 26 nM; in data set [7] (normoxia, read-out: IC50 MRC5), 27 ± 2 nM; in [8] (normoxia) it was 202 ± 3 nM. In addition, the half-inhibitory concentration (IC50) came out at 85 ± 6 nM in data set [9] (setting [17]); 50.1 nM in [10] (setting [18]); 35.1 nM in data set [10] (setting [19]); 35 ± 42 nM in data set [11] (setting [20]); 69 ± 20 nM in data set [12] (normoxia, read-out: IC50 SW480). Besides, the “Permeability (Papp) Log [10^−6 cm/s] Mean ± SE” value in data set [4] was −5.4 ± 0.17 Log [10^−6 cm/s]. In [5], the “Kel, min^−1 (elimination rate constant)” value was 0.005 ± 0 min⁻¹. Moreover, the “t1/2, min” value in data set [5] worked out at 2.125 ± 0.05 h. The “PBS (pH 7.4) Solubility μM Mean ± SE” value in [6] amounted to 2 ± 0 μM. Besides, in data set [13], the “LogD Mean ± SE” value is reported as 3.14 ± 0.02.

For the compound `CN(C)CCCN1c2ccccc2Sc2ccc(Cl)cc21` [Chlorpromazine], the “Permeability (Papp) Log [10^−6 cm/s] Mean ± SE” value in [4] was −5.4 ± 0.13 Log [10^−6 cm/s].

In the case of `CN1CCN(C2=Nc3cc(Cl)ccc3Nc3ccccc32)CC1` [Clozapine], in [4], the “Permeability (Papp) Log [10^−6 cm/s] Mean ± SE” value was −5.1 ± 0.12 Log [10^−6 cm/s].

`COc1ccc2c3c(c4cc(OC)c(OC)cc4c2c1)C[C@H]1CCC[N+]1(Cc1c([N+](=O)[O-])ncn1C)C3.[Br-]` (stereo partly drawn) [Compound 5a, (13aR)-2,3,6-trimethoxy-10-((1-methyl-4-nitro-1H-imidazol-5-yl)methyl)-10,11,12,13,13a, 14-hexahydro-9H-dibenzo[f,h]pyrrolo[1,2-b]isoquinolin-10-ium bromide]: the IC50 in [1] (Homo sapiens, NCI-H460, H460, hypoxia, read-out: IC50 (Hypoxia)) stood at 618 nM; in data set [1] (Homo sapiens, NCI-H460, H460, normoxia, read-out: IC50 (Normoxia)), 15800 nM; in [2] (Homo sapiens, MCF7, read-out: IC50 MCF7) it was 1530 ± 144 nM; in data set [3] (Homo sapiens, HEK293, read-out: IC50 HEK293) it was 5080 ± 519 nM; in [7] (Homo sapiens, MRC5, read-out: IC50 MRC5), 327 ± 147 nM; in data set [8] (Homo sapiens, RKO) it was 2030 ± 267 nM. The IC50 in data set [9] (Homo sapiens, HCT-116, read-out: IC50 HCT116) is 1040 ± 21 nM; in data set [10] (Homo sapiens, HCT-116, HTC 116, hypoxia, read-out: IC50 (Hypoxia)), 425 nM; in data set [10] (Homo sapiens, HCT-116, HTC 116, normoxia, read-out: IC50 (Normoxia)), 16500 nM; in data set [11] (Cricetulus griseus, CHO-K1, read-out: IC50 CHO-K1), 1680 ± 542 nM; in [12] (Homo sapiens, SW480, read-out: IC50 SW480), 1350 ± 0.126 nM. Further, the “Permeability (Papp) Log [10^−6 cm/s] Mean ± SE” value in data set [4] is less than −7 Log [10^−6 cm/s]. Further, the “PBS (pH 7.4) Solubility μM Mean ± SE” value in data set [6] is recorded as 154 ± 0 μM. Besides, in [13], the “LogD Mean ± SE” value was 0.69 ± 0.01.
